Source: paper PMC11289455 (Scientific Reports, 2024)
Where two headings read alike, the source gives them in different places.

Assays:
[1] = biological target: T1, V1a (vasopressin receptor 1A) (Homo sapiens, UniProt P37288); experiment: SafetyScreen44: V1a; format: binding
T1 construct: purchased Eurofins Cerep SafetyScreen44

[2] = First-in-human study, pharmacokinetics; format: in vivo; details: healthy participants
Procedure: The purpose of the first-in-human, single-center, randomized, double-blind, placebo-controlled study was to determine the safety, tolerability, pharmacokinetics, and pharmacodynamics of JNJ-77242113 in healthy participants. […] AEs were coded using the Medical Dictionary for Regulatory Activities (Version 23.1).
Whole blood samples were collected in TruCulture Tubes containing 10 ng/mL IL-2 and 20 ng/mL IL-18 with or without additional IL-23 (0.5 ng/mL, R&D Systems/Biotechne). […] IFNγ was quantified via the V-Plex-plus human IFNγ kit (MSD).
Mean concentration–time profiles for each treatment/dose group were presented graphically. Descriptive statistics were used to describe demographic and safety data.

[3] = Rat pharmacokinetic and tissue distribution study, oral dosing
Procedure: Table S2. […] Plasma, small intestine, colon, and colon contents were sampled at terminal time points. Tissues and content were homogenized in buffer (1:1 PBS:ethanol with EDTA-free protease inhibitor tablets [Roche]). All samples were analyzed using LC-MS/MS.

[4] = biological target: T2, 5-HT2B (serotonin 2B receptor) (Homo sapiens, UniProt P41595); experiment: SafetyScreen44: 5-HT2B; format: binding
T2 construct: purchased Eurofins Cerep SafetyScreen44

[5] = Exposure in colon tissue and colon contents in TNBS studies; format: in vivo, rat; details: TNBS rats, LC-MS/MS, LLOQ=2.6 nM
Procedure: Rats were deprived of food for 24 h prior to induction of colitis by intrarectal installation of TNBS 48 mg/kg (Sigma Aldrich; Raleigh, NC) in 50% ethanol on Day 0. All dose groups (n = approximately 10/group; up to 3 separate experiments) received TNBS, except negative controls, which received only water (n = 4). Rats were weighed daily. Euthanasia by overexposure to isoflurane occurred on Day 7. Following euthanasia, blood was collected retro-orbitally into serum separator microtainer tubes (Becton Dickinson; Franklin Lakes, NJ), centrifuged (2–3 min at 4 °C, 14,000 RPM), and stored at − 80 °C. Additionally, the whole colon was excised, measured, and photographed, and then cut open to allow for collection of the contents, which were weighed and flash frozen. After removal of the contents, colons were weighed and flash frozen. […] Colon weight/length ratio was calculated.
Table S3. […] All samples were analyzed using an LC-MS/MS method (LLOQ=2.6 nM).

[6] = biological target: T3, Dopamine transporter (Homo sapiens, UniProt Q01959); experiment: SafetyScreen44: dopamine transporter; format: binding
T3 construct: purchased Eurofins Cerep SafetyScreen44

[7] = biological target: T4, PDE4D2 (cAMP-specific 3’,5’-cyclic phosphodiesterase 4D2) (Homo sapiens, UniProt Q08499); experiment: SafetyScreen44: PDE4D2; format: biochemical
T4 construct: purchased Eurofins Cerep SafetyScreen44

[8] = biological target: T5, 5-HT2A (serotonin 2A receptor) (Homo sapiens, UniProt P28223); experiment: SafetyScreen44: 5-HT2A; format: binding
T5 construct: purchased Eurofins Cerep SafetyScreen44

[9] = biological target: T6, D1 (dopamine D1 receptor) (Homo sapiens, UniProt P21728); experiment: SafetyScreen44: D1; format: binding
T6 construct: purchased Eurofins Cerep SafetyScreen44

[10] = Plasma levels in rat skin inflammation model; format: in vivo; details: all doses except 300 mg/kg BID, data not shown
Procedure: Other groups received anti–IL-23p19 antibody (Santa Cruz Biotechnology; Catalog #sc-271279LS) or isotype antibody via intraperitoneal injection on Days -1 and 3, as additional controls. On Day 0 through Day 3, rats were anesthetized with isoflurane and injected with 1.5 μg of recombinant rat IL-23 (R&D Systems) in 20 μL PBS, intradermally, in the right ear; controls received an equivalent volume of PBS. Body weight was recorded daily. Thickness of the right (IL-23 injected) ear was measured to the nearest 0.05 mm using calipers (Kroeplin GmbH; Schlüchtern, Germany). Animals were euthanized by CO2 asphyxiation on Day 4. Blood was collected via cardiac puncture, deposited into K2EDTA tubes, and centrifuged at 2000 × g for 20 min. Plasma was collected into 5% volume protease inhibitor and stored at − 80 °C until bioanalysis by LC–MS. For gene expression analyses (IL-22, IL-17A, and IL-17F), the right ear was excised, flash frozen, homogenized, and reverse transcription polymerase chain reaction (RT-PCR) was performed using a TaqMan gene expression array (ThermoFisher Scientific).

[11] = Part 2 (MAD), once daily oral dosing for 10 days
[12] = male Sprague-Dawley rats, 10 mg/kg oral, n=4/timepoint, homogenate, LC-MS/MS
[13] = male Sprague-Dawley rats, 10 mg/kg oral, n=4/timepoint, tissue homogenate, LC-MS/MS
[14] = male, Sprague-Dawley, rat, in vivo, po, 10 mg/kg

T6 sequence (P21728 whole entry): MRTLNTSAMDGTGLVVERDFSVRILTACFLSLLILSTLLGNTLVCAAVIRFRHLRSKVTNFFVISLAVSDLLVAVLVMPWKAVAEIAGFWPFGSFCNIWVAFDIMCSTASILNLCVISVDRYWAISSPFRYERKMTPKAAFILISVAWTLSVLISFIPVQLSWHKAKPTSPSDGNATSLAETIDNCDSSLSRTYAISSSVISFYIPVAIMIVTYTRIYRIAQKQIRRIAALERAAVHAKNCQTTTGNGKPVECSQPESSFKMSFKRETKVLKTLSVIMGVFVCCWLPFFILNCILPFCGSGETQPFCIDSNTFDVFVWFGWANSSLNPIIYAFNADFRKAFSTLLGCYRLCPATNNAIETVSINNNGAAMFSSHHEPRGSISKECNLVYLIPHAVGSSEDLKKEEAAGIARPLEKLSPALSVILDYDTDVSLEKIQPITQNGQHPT
T2 sequence (P41595 whole entry): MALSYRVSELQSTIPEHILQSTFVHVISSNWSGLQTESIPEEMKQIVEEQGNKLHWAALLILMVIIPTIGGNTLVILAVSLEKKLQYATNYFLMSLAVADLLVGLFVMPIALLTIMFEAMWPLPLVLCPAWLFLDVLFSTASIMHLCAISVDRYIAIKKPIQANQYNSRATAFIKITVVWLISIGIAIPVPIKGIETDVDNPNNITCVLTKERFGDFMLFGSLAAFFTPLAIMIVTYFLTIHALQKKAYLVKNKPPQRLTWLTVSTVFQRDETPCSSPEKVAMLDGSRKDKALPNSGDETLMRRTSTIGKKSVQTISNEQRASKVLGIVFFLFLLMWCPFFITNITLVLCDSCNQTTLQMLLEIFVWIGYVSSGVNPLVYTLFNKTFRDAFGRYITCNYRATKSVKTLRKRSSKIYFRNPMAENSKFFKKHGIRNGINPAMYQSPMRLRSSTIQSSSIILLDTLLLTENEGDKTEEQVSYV
T5 sequence (P28223 whole entry): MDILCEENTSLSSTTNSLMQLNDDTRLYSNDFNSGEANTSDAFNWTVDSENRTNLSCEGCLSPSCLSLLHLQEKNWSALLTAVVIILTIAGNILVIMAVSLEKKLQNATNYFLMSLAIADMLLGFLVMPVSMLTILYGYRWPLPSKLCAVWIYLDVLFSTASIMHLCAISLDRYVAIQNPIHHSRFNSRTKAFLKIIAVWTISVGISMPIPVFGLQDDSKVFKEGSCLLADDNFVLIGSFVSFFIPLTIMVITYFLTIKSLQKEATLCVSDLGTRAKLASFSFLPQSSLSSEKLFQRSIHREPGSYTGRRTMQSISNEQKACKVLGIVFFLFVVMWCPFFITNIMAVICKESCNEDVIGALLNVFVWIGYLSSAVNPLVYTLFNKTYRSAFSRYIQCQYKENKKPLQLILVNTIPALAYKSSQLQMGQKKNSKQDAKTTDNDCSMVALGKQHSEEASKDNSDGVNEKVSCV
T1 sequence (P37288 whole entry): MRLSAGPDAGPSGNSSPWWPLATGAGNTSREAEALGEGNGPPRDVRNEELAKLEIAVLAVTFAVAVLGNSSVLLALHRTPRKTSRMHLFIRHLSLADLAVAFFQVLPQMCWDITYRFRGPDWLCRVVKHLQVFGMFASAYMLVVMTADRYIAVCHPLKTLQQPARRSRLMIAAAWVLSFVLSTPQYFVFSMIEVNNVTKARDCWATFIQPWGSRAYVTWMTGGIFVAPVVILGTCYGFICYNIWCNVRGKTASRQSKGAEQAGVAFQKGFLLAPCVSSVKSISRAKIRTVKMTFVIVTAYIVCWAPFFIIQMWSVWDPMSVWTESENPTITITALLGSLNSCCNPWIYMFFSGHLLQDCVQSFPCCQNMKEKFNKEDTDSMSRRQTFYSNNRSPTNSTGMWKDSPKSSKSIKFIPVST
T3 sequence (Q01959 whole entry): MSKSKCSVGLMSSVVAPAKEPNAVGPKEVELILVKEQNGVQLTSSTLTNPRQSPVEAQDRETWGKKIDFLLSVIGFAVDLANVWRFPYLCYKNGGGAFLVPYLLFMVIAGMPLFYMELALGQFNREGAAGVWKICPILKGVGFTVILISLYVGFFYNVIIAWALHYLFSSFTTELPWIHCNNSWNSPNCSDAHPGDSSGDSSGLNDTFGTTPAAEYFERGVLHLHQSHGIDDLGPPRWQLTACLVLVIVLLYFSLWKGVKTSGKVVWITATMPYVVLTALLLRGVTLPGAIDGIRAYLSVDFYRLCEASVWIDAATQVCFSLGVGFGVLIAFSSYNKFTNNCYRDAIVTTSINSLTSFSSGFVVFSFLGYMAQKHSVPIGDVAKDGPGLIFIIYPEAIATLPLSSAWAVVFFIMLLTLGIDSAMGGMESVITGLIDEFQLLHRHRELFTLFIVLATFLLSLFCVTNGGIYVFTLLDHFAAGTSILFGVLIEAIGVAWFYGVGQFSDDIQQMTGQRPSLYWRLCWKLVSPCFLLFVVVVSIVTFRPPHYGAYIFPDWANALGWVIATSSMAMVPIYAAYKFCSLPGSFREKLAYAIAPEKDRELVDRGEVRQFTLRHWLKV
T4 sequence (Q08499 303-809 limits assumed): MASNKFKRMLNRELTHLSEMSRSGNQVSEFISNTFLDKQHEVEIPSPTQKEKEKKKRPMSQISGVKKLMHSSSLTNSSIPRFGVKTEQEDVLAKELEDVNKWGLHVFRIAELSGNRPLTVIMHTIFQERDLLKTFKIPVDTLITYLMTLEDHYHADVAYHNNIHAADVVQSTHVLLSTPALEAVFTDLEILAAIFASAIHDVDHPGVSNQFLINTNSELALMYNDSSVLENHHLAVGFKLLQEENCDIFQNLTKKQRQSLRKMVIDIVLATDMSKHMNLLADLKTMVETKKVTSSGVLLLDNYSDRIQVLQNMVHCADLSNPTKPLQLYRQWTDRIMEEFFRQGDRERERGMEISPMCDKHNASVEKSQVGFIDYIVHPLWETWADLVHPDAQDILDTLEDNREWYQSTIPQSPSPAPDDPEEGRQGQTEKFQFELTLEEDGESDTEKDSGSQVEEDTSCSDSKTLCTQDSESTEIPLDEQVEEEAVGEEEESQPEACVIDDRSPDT

SMILES: CC(=O)NCCCC[C@@H]1NC(=O)[C@H](Cc2c[nH]c3c(C)cccc23)NC(=O)[C@H]([C@@H](C)O)NC(=O)[C@H](CC(N)=O)NC(=O)[C@@H](NC(C)=O)C(C)(C)SSC(C)(C)[C@@H](C(=O)N[C@@H](Cc2ccc(OCCN)cc2)C(=O)N[C@@H](Cc2ccc3ccccc3c2)C(=O)NC2(C(=O)N[C@@H](CCC(=O)O)C(=O)N[C@@H](CC(N)=O)C(=O)N[C@@H](Cc3cccnc3)C(=O)N(C)CC(N)=O)CCOCC2)NC1=O [JNJ-77242113, S^3,1,S^3,6-cyclo[N-acetyl-3-sulfanyl-L-valyl-L-asparaginyl-L-threonyl-7-methyl-L-tryptophyl-N^6-acetyl-L-lysyl-3-sulfanyl-L-valyl-O-(2-aminoethyl)-L-tyrosyl-3-(naphthalen-2-yl)-L-alanyl-4-aminooxan-4-carbonyl-L-α-glutamyl-L-asparaginyl-3-(pyridin-3-yl)-L-alanyl-N^2-methylglycinamide]]
- inhibition at 10 µM ([1]; 1st run, read-out: Percent inhibition of control ligand binding, V1a, 1st run): 4.8%
- inhibition at 10 µM ([1]; 2nd run, read-out: Percent inhibition of control ligand binding, V1a, 2nd run): 6.4%
- inhibition at 10 µM ([1]; mean of 2 runs, read-out: Percent inhibition of control ligand binding, V1a, Mean): 5.6%
- Plasma exposure versus dose (in words) ([2]; 100-fold dose range of 10 to 1000 mg oral): Dose-proportional plasma exposure
- Accumulation for AUC, Day 1 versus Day 10 [2, 11]: 0.9 to 1.5
- Accumulation for Cmax, Day 1 versus Day 10 [2, 11]: 0.7 to 1.6
- Estimated terminal elimination half-life ([2]; oral 10 to 1000 mg, plasma LC–MS/MS): 9 to 16 h
- AUClast, colon content [3, 12]: 1,700,000 ng·hr/g
- Cmax, colon content [3, 12]: 371,000 ng/g
- Tmax, colon content [3, 12]: 6 h
- AUClast, colon [3, 13]: 5,670 ng·hr/g
- Cmax, colon [3, 13]: 1,380 ng/g
- Tmax, colon [3, 13]: 6 h
- AUC(0-t) [3, 14]: 23.1 ng·h/mL
- Cmax [3, 14]: 6.49 ng/mL
- Tmax [3, 14]: 3 h
- Oral bioavailability ([3]; rat, oral dosing, data not shown): low oral bioavailability
- inhibition at 10 µM ([4]; 1st run, read-out: Percent inhibition of control ligand binding, 5-HT2B, 1st run): -19.6%
- inhibition at 10 µM ([4]; 2nd run, read-out: Percent inhibition of control ligand binding, 5-HT2B, 2nd run): -6.7%
- inhibition at 10 µM ([4]; mean of 2 runs, read-out: Percent inhibition of control ligand binding, 5-HT2B, Mean): -13.1%
- Colon tissue concentration ([5]; 0.03 mg/kg/day oral, Study 2): BQL
- level at time molar ([5]; 0.1 mg/kg/day oral, Study 1, read-out: Colon content concentration): 410 nM
- level at time molar ([5]; 0.1 mg/kg/day oral, Study 1, read-out: Colon tissue concentration): 12.8 nM
- level at time molar ([5]; 0.1 mg/kg/day oral, Study 2, read-out: Colon content concentration): 310 nM
- level at time molar ([5]; 0.1 mg/kg/day oral, Study 2, read-out: Colon tissue concentration): 16.8 nM
- Colon tissue concentration ([5]; 0.1 mg/kg/day oral, Study 3): BQL
- level at time molar ([5]; 0.1 mg/kg/day oral, Study 3, read-out: Colon content concentration): 299 nM
- level at time molar ([5]; 0.3 mg/kg/day oral, Study 1, read-out: Colon tissue concentration): 25.4 nM
- level at time molar ([5]; 1 mg/kg/day oral, Study 1, read-out: Colon content concentration): 3340 nM
- level at time molar ([5]; 1 mg/kg/day oral, Study 2, read-out: Colon content concentration): 3920 nM
- level at time molar ([5]; 1 mg/kg/day oral, Study 3, read-out: Colon content concentration): 3190 nM
- level at time molar ([5]; 3 mg/kg/day oral, Study 1, read-out: Colon content concentration): 9210 nM
- level at time molar ([5]; 3 mg/kg/day oral, Study 1, read-out: Colon tissue concentration): 333 nM
- level at time molar ([5]; 3 mg/kg/day oral, Study 2, read-out: Colon content concentration): 11700 nM
- level at time molar ([5]; 3 mg/kg/day oral, Study 2, read-out: Colon tissue concentration): 468 nM
- level at time molar ([5]; 3 mg/kg/day oral, Study 3, read-out: Colon content concentration): 11000 nM
- level at time molar ([5]; 3 mg/kg/day oral, Study 3, read-out: Colon tissue concentration): 268 nM
- level at time molar ([5]; male, Sprague-Dawley, rat, colon content, po, 0.03 mg/kg/day, 0.03 mg/kg/day oral, Study 2, read-out: Colon content concentration): 90.1 nM
- level at time molar ([5]; male, Sprague-Dawley, rat, colon content, po, 0.3 mg/kg/day, 0.3 mg/kg/day oral, Study 1, read-out: Colon content concentration): 973 nM
- level at time molar ([5]; male, Sprague-Dawley, rat, colon content, po, 0.3 mg/kg/day, 0.3 mg/kg/day oral, Study 2, read-out: Colon content concentration): 1050 nM
- level at time molar ([5]; male, Sprague-Dawley, rat, colon content, po, 0.3 mg/kg/day, 0.3 mg/kg/day oral, Study 3, read-out: Colon content concentration): 1680 nM
- level at time molar ([5]; male, Sprague-Dawley, rat, colon content, po, 10 mg/kg/day, 10 mg/kg/day oral, Study 2, read-out: Colon content concentration): 38700 nM
- level at time molar ([5]; male, Sprague-Dawley, rat, colon tissue, po, 0.3 mg/kg/day, 0.3 mg/kg/day oral, Study 2, read-out: Colon tissue concentration): 47.5 nM
- level at time molar ([5]; male, Sprague-Dawley, rat, colon tissue, po, 0.3 mg/kg/day, 0.3 mg/kg/day oral, Study 3, read-out: Colon tissue concentration): 23.4 nM
- level at time molar ([5]; male, Sprague-Dawley, rat, colon tissue, po, 1 mg/kg/day, 1 mg/kg/day oral, Study 1, read-out: Colon tissue concentration): 84.3 nM
- level at time molar ([5]; male, Sprague-Dawley, rat, colon tissue, po, 1 mg/kg/day, 1 mg/kg/day oral, Study 2, read-out: Colon tissue concentration): 168 nM
- level at time molar ([5]; male, Sprague-Dawley, rat, colon tissue, po, 1 mg/kg/day, 1 mg/kg/day oral, Study 3, read-out: Colon tissue concentration): 83.2 nM
- level at time molar ([5]; male, Sprague-Dawley, rat, colon tissue, po, 10 mg/kg/day, 10 mg/kg/day oral, Study 2, read-out: Colon tissue concentration): 1410 nM
- inhibition at 10 µM ([6]; 1st run, read-out: Percent inhibition of control ligand binding, Dopamine transporter, 1st run): -3.6%
- inhibition at 10 µM ([6]; 2nd run, read-out: Percent inhibition of control ligand binding, Dopamine transporter, 2nd run): -4.4%
- inhibition at 10 µM ([6]; mean of 2 runs, read-out: Percent inhibition of control ligand binding, Dopamine transporter, Mean): -4%
- inhibition at 10 µM ([7]; 1st run, read-out: Percent inhibition of control ligand binding, PDE4D2, 1st run): -22.6%
- inhibition at 10 µM ([7]; 2nd run, read-out: Percent inhibition of control ligand binding, PDE4D2, 2nd run): -11.7%
- inhibition at 10 µM ([7]; mean of 2 runs, read-out: Percent inhibition of control ligand binding, PDE4D2, Mean): -17.1%
- inhibition at 10 µM ([8]; 1st run, read-out: Percent inhibition of control ligand binding, 5-HT2A, 1st run): 7%
- inhibition at 10 µM ([8]; 2nd run, read-out: Percent inhibition of control ligand binding, 5-HT2A, 2nd run): 3.3%
- inhibition at 10 µM ([8]; mean of 2 runs, read-out: Percent inhibition of control ligand binding, 5-HT2A, Mean): 5.1%
- inhibition at 10 µM ([9]; 1st run, read-out: Percent inhibition of control ligand binding, D1, 1st run): 2.2%
- inhibition at 10 µM ([9]; 2nd run, read-out: Percent inhibition of control ligand binding, D1, 2nd run): 3.7%
- inhibition at 10 µM ([9]; mean of 2 runs, read-out: Percent inhibition of control ligand binding, D1, Mean): 2.9%
- Plasma levels 16 h after the final dose [10]: below the limit of quantification
